This is an account of results in ChEMBL document CHEMBL2203173 (J Med Chem, 2012).

For test [1], the system named is SK-N-MC. Kind of test: Antiproliferative activity at human SK-N-MC cells after 72 hrs by MTT assay. The format is functional, cell-based.
Test [2] has as its system SK-N-MC. The test can be described thus: Inhibition to 59Fe uptake from 59Fe-transferrin in human SK-N-MC cells at 25 uM after 3 hrs relative to Dp4eT.
The subject of test [3] is A549. Kind of test: Ratio of compound IC50 to Dp44mT IC50 for human A549 cells. The format is functional.
Test [4] has as its system DMS-53. The test can be described thus: Antiproliferative activity at human DMS53 cells after 72 hrs by MTT assay. The following applies: dms-53. The format is functional, cell-based. (In general: Formazan colour is commonly taken as a measure of viable cells.)
In test [5] the test system is SK-N-MC. Kind of test: Ratio of Dp4mT IC50 to compound IC50 for human SK-N-MC cells. The format is functional.

`CNC(=S)N/N=C(\c1ccccc1)c1ccccn1`: 18 nM corresponded to half-maximal inhibition in test [1] (IC50).

Consider `CCN(CC)C(=S)NN=C(c1ccccn1)c1ccccn1`, for which the 50% inhibitory concentration (IC50) (usually the concentration at which inhibition is half-maximal) in test [1] stood at 5 nM. Besides, the Ratio in test [2] was 2.

On to `CN(C(=S)NN=C(c1ccccn1)c1ccccn1)C1CCCCC1`, for which the “Ratio IC50” value in test [3] is recorded as 5; in test [5] it was 23. The concentration for half-maximal inhibition (IC50) in test [4] was 8 nM; in test [1], 13 nM.
